# From patent US4897483A, “Amino acid derivatives as antihypertensives” (Asahi Breweries Ltd., priority 1987, dated 1990)
# Tests used:
# rabbit lung ACE = biological target: T1, rabbit lung ACE (Oryctolagus cuniculus, UniProt P12822); experiment: Inhibition of rabbit lung ACE by the method of Friedland and Silverstein; format: biochemical; conditions: read-out: IC50 (concentration inhibiting 50% of the activity of rabbit lung ACE)
# T1 construct: activity of rabbit lung ACE; from tissue; host or cells: rabbit lung
# T1 sequence (P12822 34-1310): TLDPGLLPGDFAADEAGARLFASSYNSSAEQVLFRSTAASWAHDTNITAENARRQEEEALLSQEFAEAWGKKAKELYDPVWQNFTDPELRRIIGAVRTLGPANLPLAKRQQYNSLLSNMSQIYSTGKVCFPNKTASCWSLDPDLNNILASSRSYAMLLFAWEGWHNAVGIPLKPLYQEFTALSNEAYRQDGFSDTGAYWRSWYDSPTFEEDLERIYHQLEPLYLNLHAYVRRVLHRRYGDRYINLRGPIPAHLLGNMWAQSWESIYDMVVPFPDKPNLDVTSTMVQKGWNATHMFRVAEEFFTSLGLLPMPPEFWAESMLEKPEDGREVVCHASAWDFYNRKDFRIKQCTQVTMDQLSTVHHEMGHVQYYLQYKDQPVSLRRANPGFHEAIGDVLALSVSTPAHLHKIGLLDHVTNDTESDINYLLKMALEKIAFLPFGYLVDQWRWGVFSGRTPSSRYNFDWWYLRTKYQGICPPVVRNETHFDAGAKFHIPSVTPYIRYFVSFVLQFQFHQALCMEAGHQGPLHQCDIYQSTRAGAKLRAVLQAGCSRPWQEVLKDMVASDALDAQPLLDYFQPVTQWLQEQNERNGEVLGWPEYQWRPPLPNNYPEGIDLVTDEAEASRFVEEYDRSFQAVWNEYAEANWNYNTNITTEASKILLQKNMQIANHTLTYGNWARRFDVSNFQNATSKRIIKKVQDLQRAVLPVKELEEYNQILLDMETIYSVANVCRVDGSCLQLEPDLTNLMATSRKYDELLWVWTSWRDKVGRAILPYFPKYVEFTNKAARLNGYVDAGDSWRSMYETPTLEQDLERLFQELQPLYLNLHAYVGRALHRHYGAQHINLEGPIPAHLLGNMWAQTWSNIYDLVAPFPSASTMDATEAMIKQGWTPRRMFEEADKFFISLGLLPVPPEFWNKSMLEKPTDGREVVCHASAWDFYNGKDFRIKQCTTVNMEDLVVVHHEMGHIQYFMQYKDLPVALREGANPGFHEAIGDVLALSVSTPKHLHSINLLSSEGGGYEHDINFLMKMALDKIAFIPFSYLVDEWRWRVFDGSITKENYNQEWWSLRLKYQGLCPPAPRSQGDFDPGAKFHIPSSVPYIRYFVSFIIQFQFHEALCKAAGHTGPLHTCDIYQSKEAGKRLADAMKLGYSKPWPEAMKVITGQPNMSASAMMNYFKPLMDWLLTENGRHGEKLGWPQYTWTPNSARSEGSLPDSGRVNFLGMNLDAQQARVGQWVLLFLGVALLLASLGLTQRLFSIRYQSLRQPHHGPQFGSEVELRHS
# Protocol: The evaluation of converting enzyme inhibitors is introduced from the analysis of enzyme inhibition in a test tube. One example of inhibition activity of the compounds of the present invention calculated from the method of Friedland & Silverstein [Am. J. Clin. Pathol.
# *Concentration inhibiting 50% of the activity of rabbit lung ACE was
# determined by the method of Friedland and Silverstein.
# [1] = tested on: pressor response to Angiotensin I (AI); experiment: Inhibition of the pressor response to angiotensin I after i.v. administration, area under the AI inhibition response vs. time curve; format: in vivo; set-up: unit not given beside the values; conditions: test compound 50 μg/Kg i.v.; AI 300 ng/Kg into femoral vein; 0 to 360 min
# Protocol: **Angiotensin I (AI, 300 ng/Kg) were injected into the femoral vein at
# intervals of 10 min until the constant pressor response to AI was
# 180, 300 and 360 min after i.v. administration of the test compound (50
# μg/Kg), and AVC (area under the curve) was calculated by the AI
# inhibition response vs. time curves for 0 to 360 min.
SMILES,IC50 (rabbit lung ACE) [nM],(iv) AUC (area under the AI inhibition response vs. time curve) [1]
"NCCCCCCC[C@H](N[C@@H](CCCCN)C(=O)N1CCC[C@H]1C(=O)O)C(=O)O [Compound 4, N^α -[1(S)-carboxy-8-aminooctyl]-L-lysyl-L-proline]",0.7,431
"C[C@H](N[C@@H](CCCCC1CCNCC1)C(=O)O)C(=O)N1CCC[C@H]1C(=O)O [Compound 2, N-[1(S)-carboxy-5-(4-piperidyl)pentyl]-L-alanyl-L-proline]",1,429
"C[C@H](N[C@@H](CCCCCCCN)C(=O)O)C(=O)N1CCC[C@H]1C(=O)O [Compound 1, N-[1(S)-carboxy-8-aminooctyl]-L-alanyl-L-proline]",0.75,509
"C[C@H](N[C@@H](CCCCCC1CCNCC1)C(=O)O)C(=O)N1CCC[C@H]1C(=O)O [Compound 3, N-[1(S)-carboxy-6-(4-piperidyl)hexyl]-L-alanyl-L-proline]",1.1,424

# More lines, main results first:
IC50 (rabbit lung ACE) [nM],SMILES,(iv) AUC (area under the AI inhibition response vs. time curve) [1]
1.4,"CC(NC(CCCCCCN)C(=O)O)C(=O)N1CCCC1C(=O)O (stereo not drawn) [Compound 12, reference compound]",368
0.62,"C[C@H](N[C@@H](CCCCC1CCNCC1)C(=O)O)C(=O)N1[C@H](C(=O)O)C[C@@H]2CCCC[C@@H]21 [Compound 11, 1-[N-[1(S)-carboxy-5-(4-piperidyl)pentyl]-L-alanyl]-(2α,3aβ,7aβ)-octahydro-1H-indole-2(S)-carboxylic acid]",–
1,"NCCCC[C@H](N[C@@H](CCCCCC1CCNCC1)C(=O)O)C(=O)N1CCC[C@H]1C(=O)O [Compound 9, N^α -[1(S)-carboxy-6-(4-piperidyl)hexyl]-L-lysyl-L-proline]",–
1,"NCCCC[C@H](N[C@@H](CCCCC1CCNCC1)C(=O)O)C(=O)N1CCC[C@H]1C(=O)O [Compound 5, N^α -[1(S)-carboxy-5-(4-piperidyl)pentyl]-L-lysyl-L-proline]",460
0.9,"C[C@H](N[C@@H](CCCCCC1CCNCC1)C(=O)O)C(=O)N1[C@H](C(=O)O)C[C@@H]2CCCC[C@@H]21 [Compound 10, 1-[N-[1(S)-carboxy-6-(4-piperidyl)hexyl]-L-alanyl]-(2α,3aβ,7aβ)-octahydro-1H-indole-2(S)-carboxylic acid]",–
